These are literature values, as cited in patent US5141290A, “Toothbrush” (Hamivreshet Brush Factory, priority 1990, dated 1992).

Molecules are shown by their SMILES.

The subject of this series is dental plaque.

For the compound `[H]/N=C(\N/C(=N/[H])NCCCCCCNC(=N)NC(=N)Nc1ccc(Cl)cc1)Nc1ccc(Cl)cc1` [chlorhexidine], the “potential to inhibit the formation of plaque” value (clinically tested, among chemical agents) was “has shown the greatest promise”. Also, the plaque-reducing property result (in vivo) is recorded as “high plaque-reducing property”.
